# From PubChem BioAssay (NCI)
#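 Dose response: 5 concentrations. Exposure: 48 h. Format: 96-well plates. Endpoint: linear interpolation; highest concentration if not reached. At the GI50, growth is halved. At the TGI there is no net growth.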
# Experiments:
# Assay in all cases: inhibition of tumour cell growth, NCI panel, 48 h
# UACC-257 melanoma = system: UACC-257 melanoma
# CAKI-1 renal = system: CAKI-1 renal
# U251 CNS = system: U251 CNS
# SK-MEL-5 melanoma = system: SK-MEL-5 melanoma
# OVCAR-8 ovarian = system: OVCAR-8 ovarian
# NCI-H23 lung = system: NCI-H23 lung
# SF-268 CNS = system: SF-268 CNS
# SN12C renal = system: SN12C renal
# 786-0 renal = system: 786-0 renal
# OVCAR-4 ovarian = system: OVCAR-4 ovarian
# CCRF-CEM leukemia = system: CCRF-CEM leukemia
# HS 578T breast = system: HS 578T breast
# HCT-116 colon = system: HCT-116 colon
# HOP-92 NSCLC = system: HOP-92 NSCLC
# DU-145 prostate = system: DU-145 prostate
# T-47D breast = system: T-47D breast
# SF-539 CNS = system: SF-539 CNS
# UO-31 renal = system: UO-31 renal
# SR leukemia = system: SR leukemia
# EKVX NSCLC = system: EKVX NSCLC
# A498 renal = system: A498 renal
# TK-10 renal = system: TK-10 renal
# HCT-15 colon = system: HCT-15 colon
# SF-295 CNS = system: SF-295 CNS
# MCF7 breast = system: MCF7 breast
# COLO 205 colon = system: COLO 205 colon
# LOX IMVI melanoma = system: LOX IMVI melanoma
# SK-OV-3 ovarian = system: SK-OV-3 ovarian
# OVCAR-5 ovarian = system: OVCAR-5 ovarian
# HOP-62 NSCLC = system: HOP-62 NSCLC
# HL-60(TB) leukemia = system: HL-60(TB) leukemia
# BT-549 breast = system: BT-549 breast
# MALME-3M melanoma = system: MALME-3M melanoma
# RXF 393 renal = system: RXF 393 renal
# NCI-H460 lung = system: NCI-H460 lung
# ACHN renal = system: ACHN renal
# MOLT-4 leukemia = system: MOLT-4 leukemia
# MDA-MB-435 = system: MDA-MB-435
# NCI-H522 lung = system: NCI-H522 lung
# MDA-MB-231 breast = system: MDA-MB-231 breast
# NCI-H226 lung = system: NCI-H226 lung
# HCC-2998 colon = system: HCC-2998 colon
# SNB-75 CNS = system: SNB-75 CNS
# HT29 colon = system: HT29 colon
# KM12 colon = system: KM12 colon
# SW-620 colon = system: SW-620 colon
# K-562 leukemia = system: K-562 leukemia
# RPMI-8226 leukemia = system: RPMI-8226 leukemia
# MDA-MB-468 breast = system: MDA-MB-468 breast
# A549 NSCLC = system: A549 NSCLC
# SNB-19 CNS = system: SNB-19 CNS
# PC-3 prostate = system: PC-3 prostate
# SK-MEL-2 melanoma = system: SK-MEL-2 melanoma
# IGROV1 ovarian = system: IGROV1 ovarian
# UACC-62 melanoma = system: UACC-62 melanoma
# NCI/ADR-RES ovarian = system: NCI/ADR-RES ovarian
# SK-MEL-28 melanoma = system: SK-MEL-28 melanoma
# OVCAR-3 ovarian = system: OVCAR-3 ovarian
# M14 melanoma = system: M14 melanoma
smiles,measurement,setting,value
O=C(COc1ccc(NC(=O)Nc2ccc(Cl)c(Cl)c2)cc1)N=Nc1c(O)[nH]c2ccc(Br)cc12,GI50,UACC-257 melanoma,1790 nM
same,TGI,UACC-257 melanoma,3560 nM
same,GI50,CAKI-1 renal,2050 nM
same,TGI,CAKI-1 renal,4300 nM
same,GI50,U251 CNS,1710 nM
same,TGI,U251 CNS,3390 nM
same,GI50,SK-MEL-5 melanoma,1700 nM
same,TGI,SK-MEL-5 melanoma,3090 nM
same,GI50,OVCAR-8 ovarian,2340 nM
same,TGI,OVCAR-8 ovarian,5420 nM
same,GI50,NCI-H23 lung,1990 nM
same,TGI,NCI-H23 lung,3990 nM
same,GI50,SF-268 CNS,1630 nM
same,TGI,SF-268 CNS,5150 nM
same,GI50,SN12C renal,1820 nM
same,TGI,SN12C renal,3450 nM
same,TGI,786-0 renal,920 nM
same,GI50,OVCAR-4 ovarian,1900 nM
same,TGI,OVCAR-4 ovarian,4100 nM
same,GI50,CCRF-CEM leukemia,812 nM
same,TGI,CCRF-CEM leukemia,6130 nM
same,GI50,HS 578T breast,2250 nM
same,TGI,HS 578T breast,6710 nM
same,GI50,HCT-116 colon,166 nM
same,TGI,HCT-116 colon,369 nM
same,GI50,HOP-92 NSCLC,1930 nM
same,TGI,HOP-92 NSCLC,4450 nM
same,GI50,DU-145 prostate,3070 nM
same,TGI,DU-145 prostate,9520 nM
same,GI50,T-47D breast,1960 nM
same,TGI,T-47D breast,4570 nM
same,GI50,SF-539 CNS,1660 nM
same,TGI,SF-539 CNS,3120 nM
same,GI50,UO-31 renal,11500 nM
same,TGI,UO-31 renal,45900 nM
same,GI50,SR leukemia,2550 nM
same,TGI,SR leukemia,7980 nM
same,GI50,EKVX NSCLC,2370 nM
same,TGI,EKVX NSCLC,7060 nM
same,GI50,A498 renal,1560 nM
same,TGI,A498 renal,3790 nM
same,GI50,TK-10 renal,2460 nM
same,TGI,TK-10 renal,7790 nM
same,GI50,HCT-15 colon,6130 nM
same,TGI,HCT-15 colon,45500 nM
same,GI50,SF-295 CNS,1630 nM
same,TGI,SF-295 CNS,3200 nM
same,GI50,MCF7 breast,2010 nM
same,TGI,MCF7 breast,4710 nM
same,GI50,COLO 205 colon,1830 nM
same,TGI,COLO 205 colon,3310 nM
same,GI50,LOX IMVI melanoma,1090 nM
same,TGI,LOX IMVI melanoma,2300 nM
same,GI50,SK-OV-3 ovarian,2080 nM
same,TGI,SK-OV-3 ovarian,4290 nM
same,GI50,OVCAR-5 ovarian,1820 nM
same,TGI,OVCAR-5 ovarian,3890 nM
same,GI50,HOP-62 NSCLC,2030 nM
same,TGI,HOP-62 NSCLC,3950 nM
same,GI50,HL-60(TB) leukemia,2020 nM
same,TGI,HL-60(TB) leukemia,4660 nM
same,GI50,BT-549 breast,28.8 nM
same,TGI,BT-549 breast,2230 nM
same,GI50,MALME-3M melanoma,1640 nM
same,TGI,MALME-3M melanoma,3030 nM
same,GI50,RXF 393 renal,1520 nM
same,TGI,RXF 393 renal,3040 nM
same,GI50,NCI-H460 lung,1600 nM
same,TGI,NCI-H460 lung,3540 nM
same,GI50,ACHN renal,2940 nM
same,TGI,ACHN renal,9120 nM
same,GI50,MOLT-4 leukemia,629 nM
same,TGI,MOLT-4 leukemia,2690 nM
same,GI50,MDA-MB-435,1550 nM
same,TGI,MDA-MB-435,3250 nM
same,GI50,NCI-H522 lung,1810 nM
same,TGI,NCI-H522 lung,3620 nM
same,GI50,MDA-MB-231 breast,1810 nM
same,TGI,MDA-MB-231 breast,3350 nM
same,GI50,NCI-H226 lung,1980 nM
same,TGI,NCI-H226 lung,3860 nM
same,GI50,HCC-2998 colon,1820 nM
same,TGI,HCC-2998 colon,3890 nM
same,GI50,SNB-75 CNS,1330 nM
same,TGI,SNB-75 CNS,2840 nM
same,GI50,HT29 colon,1860 nM
same,TGI,HT29 colon,3780 nM
same,GI50,KM12 colon,1950 nM
same,TGI,KM12 colon,4120 nM
same,GI50,SW-620 colon,1460 nM
same,TGI,SW-620 colon,3060 nM
same,GI50,K-562 leukemia,1260 nM
same,TGI,K-562 leukemia,6470 nM
same,GI50,RPMI-8226 leukemia,2190 nM
same,TGI,RPMI-8226 leukemia,6370 nM
same,GI50,MDA-MB-468 breast,1750 nM
same,TGI,MDA-MB-468 breast,3460 nM
same,GI50,A549 NSCLC,2060 nM
same,TGI,A549 NSCLC,5000 nM
same,GI50,SNB-19 CNS,2680 nM
same,TGI,SNB-19 CNS,8420 nM
same,GI50,PC-3 prostate,1150 nM
same,TGI,PC-3 prostate,3440 nM
same,GI50,SK-MEL-2 melanoma,1970 nM
same,TGI,SK-MEL-2 melanoma,4270 nM
same,GI50,IGROV1 ovarian,1880 nM
same,TGI,IGROV1 ovarian,3920 nM
same,GI50,UACC-62 melanoma,1850 nM
same,TGI,UACC-62 melanoma,3770 nM
same,GI50,NCI/ADR-RES ovarian,> 100000 nM
same,TGI,NCI/ADR-RES ovarian,> 100000 nM
same,GI50,SK-MEL-28 melanoma,1830 nM
same,TGI,SK-MEL-28 melanoma,3430 nM
same,GI50,OVCAR-3 ovarian,1080 nM
same,TGI,OVCAR-3 ovarian,3130 nM
same,GI50,M14 melanoma,231 nM
same,TGI,M14 melanoma,634 nM
